In ChEMBL document CHEMBL1909046, “DrugMatrix in vitro pharmacology data”:

What was measured:
Glucocorticoid receptor = biological target: T1, Glucocorticoid receptor (Homo sapiens, UniProt P04150); assay: biochemical; note: in other assays of this panel Not Active means under 50% inhibition at 10 µM
T1 sequence (P04150 whole entry): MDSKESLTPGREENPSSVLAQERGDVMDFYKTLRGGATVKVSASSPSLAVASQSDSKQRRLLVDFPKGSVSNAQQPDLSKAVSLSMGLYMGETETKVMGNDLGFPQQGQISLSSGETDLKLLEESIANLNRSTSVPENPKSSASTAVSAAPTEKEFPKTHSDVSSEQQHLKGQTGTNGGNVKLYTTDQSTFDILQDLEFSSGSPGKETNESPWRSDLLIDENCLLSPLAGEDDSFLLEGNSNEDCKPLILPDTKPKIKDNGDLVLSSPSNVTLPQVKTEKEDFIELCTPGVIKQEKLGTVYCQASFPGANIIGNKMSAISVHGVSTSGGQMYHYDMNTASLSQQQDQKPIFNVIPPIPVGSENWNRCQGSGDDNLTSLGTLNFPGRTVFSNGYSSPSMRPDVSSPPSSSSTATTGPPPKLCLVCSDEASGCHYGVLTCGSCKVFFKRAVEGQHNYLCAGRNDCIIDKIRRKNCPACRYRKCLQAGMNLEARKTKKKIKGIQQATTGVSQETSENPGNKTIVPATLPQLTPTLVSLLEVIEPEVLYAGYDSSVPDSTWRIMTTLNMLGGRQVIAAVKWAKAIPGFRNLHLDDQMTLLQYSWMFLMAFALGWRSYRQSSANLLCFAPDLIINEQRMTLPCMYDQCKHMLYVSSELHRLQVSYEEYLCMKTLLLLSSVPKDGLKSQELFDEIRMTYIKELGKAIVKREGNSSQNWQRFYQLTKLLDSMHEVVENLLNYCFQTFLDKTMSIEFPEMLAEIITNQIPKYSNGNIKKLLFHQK

Mu-type opioid receptor = Mu-type opioid receptor (Homo sapiens, UniProt P35372); assay: DRUGMATRIX: Opiate mu (OP3, MOP) radioligand binding (ligand: [3H] Diprenorphine); type: cell membranes, CHO-K1, Membrane; conditions: cho-k1; Not Active = under 50% inhibition at 10 µM
[1] = biological target: Vascular endothelial growth factor receptor 1 (Homo sapiens, UniProt P17948); assay: biochemical; type: cell-based, HUVEC; conditions: huvec; note: in other assays of this panel Not Active means under 50% inhibition at 10 µM
[2] = DRUGMATRIX: GABAA, Muscimol, Central radioligand binding (ligand: [3H] Muscimol); type: cell membranes, Rattus norvegicus, Wistar, Brain, Membrane; conditions: Not Active = under 50% inhibition at 10 µM
[3] = DRUGMATRIX: Potassium Channel [KATP] radioligand binding (ligand: [3H] Glyburide); type: cell membranes, Membrane; conditions: hit-t15; Not Active = under 50% inhibition at 10 µM
Acetylcholinesterase = Acetylcholinesterase (Homo sapiens, UniProt P22303); assay: DRUGMATRIX: Acetylcholinesterase enzyme inhibition (substrate: acetylthiocholine); type: cell-based, HEK293; conditions: hek293; Not Active = under 50% inhibition at 10 µM
Cytochrome P450 2D6 = Cytochrome P450 2D6 (Homo sapiens, UniProt P10635); note: in other assays of this panel Not Active means under 50% inhibition at 10 µM
Androgen receptor = biological target: T2, Androgen receptor (Rattus norvegicus, UniProt P15207); note: in other assays of this panel Not Active means under 50% inhibition at 10 µM
T2 sequence (P15207 whole entry): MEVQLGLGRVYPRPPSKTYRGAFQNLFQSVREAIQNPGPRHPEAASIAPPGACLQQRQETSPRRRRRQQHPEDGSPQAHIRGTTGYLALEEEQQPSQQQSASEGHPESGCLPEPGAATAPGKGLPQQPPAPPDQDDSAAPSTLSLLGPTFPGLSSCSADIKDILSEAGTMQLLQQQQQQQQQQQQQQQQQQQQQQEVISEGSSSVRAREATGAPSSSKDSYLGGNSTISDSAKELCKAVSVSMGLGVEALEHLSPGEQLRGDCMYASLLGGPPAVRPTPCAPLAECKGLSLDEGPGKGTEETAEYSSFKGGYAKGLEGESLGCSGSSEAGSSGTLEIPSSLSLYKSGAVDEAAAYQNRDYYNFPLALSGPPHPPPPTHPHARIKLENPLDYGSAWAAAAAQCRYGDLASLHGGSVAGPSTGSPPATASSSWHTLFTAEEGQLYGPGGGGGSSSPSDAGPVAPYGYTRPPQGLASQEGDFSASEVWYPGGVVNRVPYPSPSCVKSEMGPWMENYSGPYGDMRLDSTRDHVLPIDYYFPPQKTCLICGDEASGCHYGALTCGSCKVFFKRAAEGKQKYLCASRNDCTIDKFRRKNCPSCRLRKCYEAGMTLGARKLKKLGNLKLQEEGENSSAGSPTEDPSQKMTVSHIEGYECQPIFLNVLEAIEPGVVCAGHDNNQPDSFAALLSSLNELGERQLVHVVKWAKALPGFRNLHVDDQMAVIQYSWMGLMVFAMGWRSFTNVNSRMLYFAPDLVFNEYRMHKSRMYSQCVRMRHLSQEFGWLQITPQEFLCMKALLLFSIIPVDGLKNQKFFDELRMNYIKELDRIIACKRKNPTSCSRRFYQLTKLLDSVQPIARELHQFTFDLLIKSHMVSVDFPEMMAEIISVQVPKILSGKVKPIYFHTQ

Cytochrome P450 2C9 = Cytochrome P450 2C9 (Homo sapiens, UniProt P11712); note: in other assays of this panel Not Active means under 50% inhibition at 10 µM
Cytochrome P450 2C19 = Cytochrome P450 2C19 (Homo sapiens, UniProt P33261); note: in other assays of this panel Not Active means under 50% inhibition at 10 µM
Cytochrome P450 1A2 = biological target: T3, Cytochrome P450 1A2 (Homo sapiens, UniProt P05177); note: in other assays of this panel Not Active means under 50% inhibition at 10 µM
T3 sequence (P05177 whole entry): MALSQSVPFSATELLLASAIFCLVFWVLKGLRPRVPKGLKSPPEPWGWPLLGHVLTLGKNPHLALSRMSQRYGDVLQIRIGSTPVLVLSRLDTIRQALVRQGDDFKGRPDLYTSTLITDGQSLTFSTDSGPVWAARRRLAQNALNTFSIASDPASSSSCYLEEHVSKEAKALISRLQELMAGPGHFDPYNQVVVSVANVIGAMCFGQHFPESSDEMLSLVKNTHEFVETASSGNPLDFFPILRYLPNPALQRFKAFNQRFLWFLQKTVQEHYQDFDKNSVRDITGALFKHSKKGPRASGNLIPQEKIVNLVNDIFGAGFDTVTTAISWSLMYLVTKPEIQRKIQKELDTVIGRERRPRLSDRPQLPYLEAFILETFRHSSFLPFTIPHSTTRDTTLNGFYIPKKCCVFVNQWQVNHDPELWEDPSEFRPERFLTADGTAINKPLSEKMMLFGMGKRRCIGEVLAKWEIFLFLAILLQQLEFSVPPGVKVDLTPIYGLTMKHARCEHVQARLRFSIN

Sequence of Acetylcholinesterase (P22303 whole entry): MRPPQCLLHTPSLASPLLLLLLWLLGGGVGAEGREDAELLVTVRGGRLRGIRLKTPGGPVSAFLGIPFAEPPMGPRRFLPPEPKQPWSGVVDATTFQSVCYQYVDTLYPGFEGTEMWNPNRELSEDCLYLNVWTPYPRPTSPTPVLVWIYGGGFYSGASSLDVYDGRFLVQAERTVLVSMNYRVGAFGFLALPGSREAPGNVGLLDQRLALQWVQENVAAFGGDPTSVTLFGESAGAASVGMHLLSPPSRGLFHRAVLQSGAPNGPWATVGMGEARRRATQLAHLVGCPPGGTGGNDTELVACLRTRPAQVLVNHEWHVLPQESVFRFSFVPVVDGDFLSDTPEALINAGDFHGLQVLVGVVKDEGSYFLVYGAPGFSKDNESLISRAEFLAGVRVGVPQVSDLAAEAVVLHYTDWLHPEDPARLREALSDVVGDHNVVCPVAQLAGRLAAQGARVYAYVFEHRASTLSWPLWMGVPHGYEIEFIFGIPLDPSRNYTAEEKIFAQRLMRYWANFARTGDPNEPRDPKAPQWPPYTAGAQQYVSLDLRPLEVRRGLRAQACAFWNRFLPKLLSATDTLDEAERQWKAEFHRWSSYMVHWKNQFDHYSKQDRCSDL
Sequence of Vascular endothelial growth factor receptor 1 (P17948 whole entry): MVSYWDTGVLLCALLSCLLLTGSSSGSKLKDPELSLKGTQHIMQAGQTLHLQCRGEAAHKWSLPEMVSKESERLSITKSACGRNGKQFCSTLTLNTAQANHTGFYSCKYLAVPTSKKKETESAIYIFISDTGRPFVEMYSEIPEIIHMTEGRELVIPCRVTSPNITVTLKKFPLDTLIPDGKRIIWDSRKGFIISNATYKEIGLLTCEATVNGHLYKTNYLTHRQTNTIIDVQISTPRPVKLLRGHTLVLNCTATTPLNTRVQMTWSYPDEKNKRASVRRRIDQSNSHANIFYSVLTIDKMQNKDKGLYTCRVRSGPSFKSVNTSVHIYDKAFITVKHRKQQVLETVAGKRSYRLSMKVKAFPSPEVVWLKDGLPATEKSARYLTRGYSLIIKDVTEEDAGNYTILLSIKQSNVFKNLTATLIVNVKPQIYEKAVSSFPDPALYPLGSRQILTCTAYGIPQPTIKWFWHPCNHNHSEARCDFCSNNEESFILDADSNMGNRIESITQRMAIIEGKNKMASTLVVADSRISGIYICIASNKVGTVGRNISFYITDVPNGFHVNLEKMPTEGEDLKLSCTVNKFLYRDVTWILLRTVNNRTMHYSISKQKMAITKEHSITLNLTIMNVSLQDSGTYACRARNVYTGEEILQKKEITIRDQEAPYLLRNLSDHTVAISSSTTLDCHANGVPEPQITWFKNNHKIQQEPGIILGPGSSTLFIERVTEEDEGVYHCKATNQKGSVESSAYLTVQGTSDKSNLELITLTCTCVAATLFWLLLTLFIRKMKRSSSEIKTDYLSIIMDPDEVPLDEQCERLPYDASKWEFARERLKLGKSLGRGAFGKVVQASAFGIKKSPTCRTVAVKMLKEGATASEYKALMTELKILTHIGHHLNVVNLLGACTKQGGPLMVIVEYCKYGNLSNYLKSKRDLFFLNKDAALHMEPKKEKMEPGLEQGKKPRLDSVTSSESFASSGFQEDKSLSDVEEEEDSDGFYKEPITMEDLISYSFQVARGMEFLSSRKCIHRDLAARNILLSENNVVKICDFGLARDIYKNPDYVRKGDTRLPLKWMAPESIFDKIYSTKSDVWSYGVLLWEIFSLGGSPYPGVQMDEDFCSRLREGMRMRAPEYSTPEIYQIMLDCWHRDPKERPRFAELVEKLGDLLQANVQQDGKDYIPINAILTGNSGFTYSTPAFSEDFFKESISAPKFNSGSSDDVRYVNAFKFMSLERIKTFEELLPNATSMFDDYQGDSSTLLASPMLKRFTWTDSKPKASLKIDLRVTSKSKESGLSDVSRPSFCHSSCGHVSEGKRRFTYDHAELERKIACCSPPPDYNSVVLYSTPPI
Sequence of Cytochrome P450 2C19 (P33261 whole entry): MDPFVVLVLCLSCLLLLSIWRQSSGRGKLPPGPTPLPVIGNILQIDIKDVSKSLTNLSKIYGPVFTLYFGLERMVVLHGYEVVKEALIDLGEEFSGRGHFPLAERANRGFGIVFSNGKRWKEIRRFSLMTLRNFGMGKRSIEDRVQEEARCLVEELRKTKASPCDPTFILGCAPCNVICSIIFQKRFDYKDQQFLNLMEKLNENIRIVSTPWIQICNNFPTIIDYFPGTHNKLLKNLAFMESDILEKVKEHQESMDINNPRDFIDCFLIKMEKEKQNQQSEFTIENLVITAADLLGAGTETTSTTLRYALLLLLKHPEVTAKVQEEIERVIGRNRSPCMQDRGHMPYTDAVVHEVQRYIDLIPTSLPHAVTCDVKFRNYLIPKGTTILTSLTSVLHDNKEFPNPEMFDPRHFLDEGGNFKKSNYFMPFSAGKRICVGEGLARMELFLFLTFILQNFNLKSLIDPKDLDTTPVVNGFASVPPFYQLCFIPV
Sequence of Mu-type opioid receptor (P35372 whole entry): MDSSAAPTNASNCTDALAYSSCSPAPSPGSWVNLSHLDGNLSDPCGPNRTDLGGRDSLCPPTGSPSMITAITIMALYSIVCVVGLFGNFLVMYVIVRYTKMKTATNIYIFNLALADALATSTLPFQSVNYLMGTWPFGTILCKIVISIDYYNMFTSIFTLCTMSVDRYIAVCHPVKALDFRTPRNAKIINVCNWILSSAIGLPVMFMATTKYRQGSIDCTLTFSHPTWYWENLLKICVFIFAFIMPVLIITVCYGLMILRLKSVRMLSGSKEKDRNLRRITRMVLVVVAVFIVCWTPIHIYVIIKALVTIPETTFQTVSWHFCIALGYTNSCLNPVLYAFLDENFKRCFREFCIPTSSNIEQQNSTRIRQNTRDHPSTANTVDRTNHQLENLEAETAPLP
Sequence of Cytochrome P450 2C9 (P11712 whole entry): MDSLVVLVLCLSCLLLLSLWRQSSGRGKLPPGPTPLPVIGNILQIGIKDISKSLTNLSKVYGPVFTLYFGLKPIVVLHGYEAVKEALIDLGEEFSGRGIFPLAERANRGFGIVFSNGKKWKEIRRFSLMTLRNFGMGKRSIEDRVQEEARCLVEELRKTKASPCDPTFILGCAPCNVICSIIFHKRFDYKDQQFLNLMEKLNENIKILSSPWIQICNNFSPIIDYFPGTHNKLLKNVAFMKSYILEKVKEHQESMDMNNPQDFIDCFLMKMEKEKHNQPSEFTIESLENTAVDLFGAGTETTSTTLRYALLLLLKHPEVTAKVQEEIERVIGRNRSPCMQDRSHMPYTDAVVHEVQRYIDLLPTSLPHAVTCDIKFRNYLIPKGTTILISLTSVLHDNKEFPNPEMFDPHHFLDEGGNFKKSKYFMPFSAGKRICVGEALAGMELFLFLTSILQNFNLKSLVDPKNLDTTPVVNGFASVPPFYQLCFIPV
Sequence of Cytochrome P450 2D6 (P10635 whole entry): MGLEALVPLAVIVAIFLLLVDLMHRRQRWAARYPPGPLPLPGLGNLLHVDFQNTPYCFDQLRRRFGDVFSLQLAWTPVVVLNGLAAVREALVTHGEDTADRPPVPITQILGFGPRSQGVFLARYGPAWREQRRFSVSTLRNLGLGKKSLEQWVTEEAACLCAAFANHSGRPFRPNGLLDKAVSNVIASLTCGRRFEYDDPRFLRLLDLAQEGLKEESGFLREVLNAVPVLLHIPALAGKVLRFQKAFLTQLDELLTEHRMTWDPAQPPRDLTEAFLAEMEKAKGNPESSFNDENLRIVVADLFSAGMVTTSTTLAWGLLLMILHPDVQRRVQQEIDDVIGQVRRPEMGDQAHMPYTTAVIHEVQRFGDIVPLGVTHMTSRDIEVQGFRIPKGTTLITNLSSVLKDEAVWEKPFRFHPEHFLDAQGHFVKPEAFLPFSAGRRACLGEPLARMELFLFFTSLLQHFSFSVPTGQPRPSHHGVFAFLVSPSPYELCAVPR

Structure (SMILES)	IC50 (Glucocorticoid receptor) [µM]	Ki (Glucocorticoid receptor) [µM]	IC50 (Mu-type opioid receptor)	IC50 [1]	IC50 [2]	Ki [2]	IC50 [3]	Ki [3]	IC50 (Acetylcholinesterase)	IC50 (Cytochrome P450 2D6) [µM]	IC50 (Androgen receptor)	IC50 (Cytochrome P450 2C9) [µM]	IC50 (Cytochrome P450 2C19) [µM]	IC50 (Cytochrome P450 1A2) [µM]
CC(=O)[C@@]1(O)CC[C@H]2[C@@H]3CCC4=CC(=O)CC[C@]4(C)[C@H]3CC[C@@]21C [HYDROXYPROGESTERONE]	0.051	0.023	Not Active	Not Active	Not Active	Not Active	Not Active	Not Active	Not Active					
COC1=C(OC)C(=O)C(CCCCCCCCCCO)=C(C)C1=O [IDEBENONE]			Not Active	Not Active	Not Active	Not Active	Not Active	Not Active	Not Active	3	Not Active	5	0.8	
Cc1c(OCC(F)(F)F)ccnc1C[S+]([O-])c1nc2ccccc2[nH]1 (stereo unspecified) [LANSOPRAZOLE]			Not Active	Not Active	Not Active	Not Active	Not Active	Not Active	Not Active	5.31			0.337	
O=c1cc(N2CCOCC2)oc2c(-c3ccccc3)cccc12 [LY-294002]			Not Active	Not Active	Not Active	Not Active	Not Active	Not Active	Not Active		Not Active			1
O=C(N/N=C/c1ccc([N+](=O)[O-])o1)c1cc([N+](=O)[O-])cc([N+](=O)[O-])c1O [NIFURSOL]			Not Active	Not Active	Not Active	Not Active	Not Active	Not Active	Not Active			7	5	
C#CC1(O)CC[C@H]2[C@@H]3CCC4=CC(=O)CC[C@@H]4[C@H]3CC[C@@]21CC (stereo partly specified) [NORGESTREL]	0.149	0.068	Not Active	Not Active	Not Active	Not Active	Not Active	Not Active	Not Active					
CC(=O)[C@H]1[C@H](C#N)C[C@H]2[C@@H]3CC=C4C[C@@H](O)CC[C@]4(C)[C@H]3CC[C@@]21C [PREGNENOLONE CARBONITRILE]	14	6.34	Not Active	Not Active	Not Active	Not Active	Not Active	Not Active	Not Active					
CCCN(CCC)S(=O)(=O)c1ccc(C(=O)O)cc1 [PROBENECID]			Not Active	Not Active	Not Active	Not Active	Not Active	Not Active	Not Active		Not Active			
CC(C)c1cccc(C(C)C)c1O [PROPOFOL]			Not Active	Not Active	Not Active	Not Active	Not Active	Not Active	Not Active		Not Active			
